Values joined by “and” are separate entries in the source; they are usually repeats but may differ in a detail not shown here. Identical values can stand only once.
How the values were obtained:
AChE = target: T1, AChE (Electrophorus electricus, UniProt O42275); assay: biochemical; details: for Ki: Lineweaver–Burk plots; for AChE/BChE SI (selectivity index): SI = KI (AChE)/KI (BChE); for IC50: substrate ATChI, 37 °C
T1 construct: AChE (from electric eels); from tissue
Method: Activity variations were tracked at 37 °C using acetylthiocholine iodide (ATChI) as a substrate for AChE (from electric eels) and butyrylcholine iodide (BChI) as a substrate for BChE (from horse serum).
Using at least five different inhibitor concentrations against the AChE and BChE enzymes, the inhibitory effects of thiazole‐based furan derivatives were assessed across a range of inhibitor doses. […] Furthermore, Lineweaver–Burk plots were used to assess inhibition types and inhibition constants (K I), providing thorough information on the kinetic behavior of these inhibitors.^[ [64] ^, [65] ^]

BChE = target: T2, BChE (Equus caballus, UniProt P81908); assay: biochemical; details: for Ki: Lineweaver–Burk plots; for IC50: substrate BChI, 37 °C
T2 construct: BChE (from horse serum); from tissue; host or cells: horse serum
T2 sequence (P81908 whole entry): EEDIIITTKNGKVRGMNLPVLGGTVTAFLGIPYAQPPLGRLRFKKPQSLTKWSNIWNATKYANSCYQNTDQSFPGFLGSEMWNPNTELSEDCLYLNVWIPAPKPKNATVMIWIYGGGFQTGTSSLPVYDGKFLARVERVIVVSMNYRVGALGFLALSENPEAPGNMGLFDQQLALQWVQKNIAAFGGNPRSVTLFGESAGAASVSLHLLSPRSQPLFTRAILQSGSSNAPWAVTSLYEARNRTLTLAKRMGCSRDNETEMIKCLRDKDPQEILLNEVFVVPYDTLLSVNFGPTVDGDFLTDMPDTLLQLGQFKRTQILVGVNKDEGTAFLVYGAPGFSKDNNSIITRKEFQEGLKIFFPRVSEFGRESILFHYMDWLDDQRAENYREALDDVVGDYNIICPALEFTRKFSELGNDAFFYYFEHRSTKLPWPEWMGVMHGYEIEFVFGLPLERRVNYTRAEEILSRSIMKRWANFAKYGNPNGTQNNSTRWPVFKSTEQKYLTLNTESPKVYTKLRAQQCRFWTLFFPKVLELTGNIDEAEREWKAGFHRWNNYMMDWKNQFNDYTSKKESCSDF

[1] = DPPH radical scavenging assay; details: 2 µg mL^−1
Method: (§1) The methods outlined by Blois and Re were used to assess the DPPH^ · and ABTS^+· free radical scavenging activities, respectively.^[ [58], [59] ^– [60] ^] A series of stock concentrations of synthesized thiazole‐based furan derivatives (2a‐2m) was prepared. For DPPH assay, a radical solution of 1 mM DPPH solution was prepared. Final concentrations were adjusted by diluting the sample stock solutions with ethanol to a total volume of 2 mL and then adding 0.5 mL of DPPH solution to each tube. The mixtures were incubated at room temperature and protected from light for 30 min. Absorbance was measured at 517 nm. In the ABTS test, 7 mM ABTS solution was prepared, and radical cations were formed by adding 2.45 mM persulfate. The absorbance of the control solution was adjusted to 0.700 ± 0.025 at 734 nm. For analysis, 0.5 mL of ABTS^+· radical solution was added to each sample. The absorbance at 734 nm was then measured against the blank solution following a 30 min incubation period.

[2] = ABTS radical scavenging assay; details: 2 µg mL^−1
Method: as §1

T1 sequence (O42275 24-633): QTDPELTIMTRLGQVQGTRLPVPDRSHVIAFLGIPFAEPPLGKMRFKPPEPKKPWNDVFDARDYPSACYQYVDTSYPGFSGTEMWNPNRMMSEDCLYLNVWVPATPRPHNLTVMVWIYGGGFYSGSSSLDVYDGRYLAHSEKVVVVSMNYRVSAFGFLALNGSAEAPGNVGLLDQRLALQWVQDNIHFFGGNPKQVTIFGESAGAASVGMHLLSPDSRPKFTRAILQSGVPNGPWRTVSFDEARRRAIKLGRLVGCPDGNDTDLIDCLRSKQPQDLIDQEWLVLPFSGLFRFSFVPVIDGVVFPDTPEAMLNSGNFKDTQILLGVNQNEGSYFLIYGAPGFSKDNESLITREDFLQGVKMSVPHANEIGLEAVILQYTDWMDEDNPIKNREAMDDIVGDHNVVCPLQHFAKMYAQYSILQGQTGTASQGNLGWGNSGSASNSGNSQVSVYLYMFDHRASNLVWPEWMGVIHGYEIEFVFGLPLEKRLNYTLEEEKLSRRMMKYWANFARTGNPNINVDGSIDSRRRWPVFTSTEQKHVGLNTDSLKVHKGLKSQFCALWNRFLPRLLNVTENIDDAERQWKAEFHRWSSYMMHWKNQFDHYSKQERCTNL

SMILES	Ki (AChE)	AChE/BChE SI (selectivity index) (AChE)	IC50 (AChE)	Ki (BChE)	IC50 (BChE)	DPPH percent radical scavenging [1]	ABTS percent radical scavenging [2]
N#Cc1ccc(-c2csc(NN=Cc3ccc(CO)o3)n2)cc1 [2c, 4‐(4‐Cyanophenyl)‐2‐(2‐((5‐Hydroxymethylfuran‐2‐Yl)methylene)hydrazineyl)thiazole]	31.8 ± 2.86 µM	3.334	46.2 µM	9.53 ± 0.824 µM	13.9 µM	3.512 ± 0.237%	15.789 ± 1.365%
Cc1c(C)c2c(c(C)c1O)CCC(C)(C(=O)O)O2 (stereo not drawn) [Trolox, reference compound]	–	–	–	–	–	13.863 ± 1.023%	29.211 ± 2.043%
O=[N+]([O-])c1ccc(-c2csc(NN=Cc3ccc(CO)o3)n2)cc1 [2a, 4‐(4‐Nitrophenyl)‐2‐(2‐((5‐hydroxymethylfuran‐2‐yl)methylene)hydrazineyl)thiazole]	14.9 ± 1.05 µM	2.469	21.7 µM	6.03 ± 0.523 µM	8.77 µM	12.202% and 12.202 ± 0.965%	56.842% and 56.842 ± 4.346%
OCc1ccc(C=NNc2nc(-c3ccc(Br)cc3)cs2)o1 [2f, 4‐(4‐Bromophenyl)‐2‐(2‐((5‐Hydroxymethylfuran‐2‐Yl)methylene)hydrazineyl)thiazole]	26.5 ± 1.81 µM	5.557	38.5 µM	4.76 ± 0.321 µM	6.93 µM	7.579 ± 0.648%	22.107 ± 1.728%
COc1ccc(-c2csc(NN=Cc3ccc(CO)o3)n2)cc1 [2b, 4‐(4‐Methoxyphenyl)‐2‐(2‐((5‐Hydroxymethylfuran‐2‐Yl)methylene)hydrazineyl)thiazole]	14.5 ± 1.12 µM	0.609	21.1 µM	23.82 ± 0.132 µM	34.7 µM	1.109 ± 0.762%	2.105 ± 0.176%
Cc1ccc(-c2csc(NN=Cc3ccc(CO)o3)n2)cc1 [2g, 4‐(4‐Methylphenyl)‐2‐(2‐((5‐Hydroxymethylfuran‐2‐Yl)methylene)hydrazineyl)thiazole]	36.7 ± 2.56 µM	2.847	53.3 µM	12.9 ± 1.21 µM	18.7 µM	4.067 ± 0.289%	11.053 ± 1.012%
O=[N+]([O-])c1cccc(-c2csc(NN=Cc3ccc(CO)o3)n2)c1 [2m, 4‐(3‐Nitrophenyl)‐2‐(2‐((5‐Hydroxymethylfuran‐2‐Yl)methylene)hydrazineyl)thiazole]	59.6 ± 4.82 µM	4.001	86.6 µM	14.9 ± 1.35 µM	21.7 µM	11.275 ± 1.021%	30.789 ± 2.489%
OCc1ccc(C=NNc2nc(-c3ccc(-c4ccccc4)cc3)cs2)o1 [2e, 4‐([1,1^′‐Biphenyl]‐4‐Yl)‐2‐(2‐((5‐Hydroxymethylfuran‐2‐Yl)methylene)hydrazineyl) Thiazole]	34 ± 2.1 µM	5.287	49.5 µM	6.44 ± 0.452 µM	9.36 µM	4.621 ± 0.372%	17.105 ± 1.248%
OCc1ccc(C=NNc2nc(-c3ccc(F)cc3F)cs2)o1 [2i, 4‐(2,4‐Difluorophenyl)‐2‐(2‐((5‐Hydroxymethylfuran‐2‐Yl)methylene)hydrazineyl) Thiazole]	43.4 ± 3.56 µM	6.650	63.1 µM	6.52 ± 0.428 µM	9.49 µM	13.309% and 13.309 ± 1.278%	31.842% and 31.842 ± 2.785%
OCc1ccc(C=NNc2nc(-c3ccccc3)cs2)o1 [2j, 4‐Phenyl‐2‐(2‐((5‐hydroxymethylfuran‐2‐yl)methylene)hydrazineyl)thiazole]	42.5 ± 3.49 µM	3.134	61.9 µM	13.6 ± 1.05 µM	19.7 µM	9.057 ± 0.834%	28.158 ± 2.075%
OCc1ccc(C=NNc2nc(-c3ccc(Cl)cc3Cl)cs2)o1 [2l, 4‐(2,4‐Dichlorophenyl)‐2‐(2‐((5‐Hydroxymethylfuran‐2‐Yl)methylene)hydrazineyl) Thiazole]	42.1 ± 3.79 µM	7.345	61.3 µM	5.74 ± 0.384 µM	8.35 µM	4.436 ± 0.386%	21.053 ± 1.793%
OCc1ccc(C=NNc2nc(-c3ccc(F)cc3)cs2)o1 [2d, 4‐(4‐Fluorophenyl)‐2‐(2‐((5‐Hydroxymethylfuran‐2‐Yl)methylene)hydrazineyl)thiazole]	36.7 ± 3.22 µM	4.925	53.3 µM	7.44 ± 0.565 µM	10.8 µM	1.848 ± 0.095%	6.316 ± 0.584%
OCc1ccc(C=NNc2nc(-c3ccc(Cl)cc3)cs2)o1 [2k, 4‐(4‐Chlorophenyl)‐2‐(2‐((5‐hydroxymethylfuran‐2‐yl)methylene)hydrazineyl)thiazole]	39.4 ± 3.25 µM	4.629	57.3 µM	8.51 ± 0.684 µM	12.4 µM	6.470 ± 0.574%	11.842 ± 0.982%
OCc1ccc(C=NNc2nc(-c3ccc(Cl)c(Cl)c3)cs2)o1 [2h, 4‐(3,4‐Dichlorophenyl)‐2‐(2‐((5‐Hydroxymethylfuran‐2‐Yl)methylene)hydrazineyl) Thiazole]	26.7 ± 2.04 µM	3.257	38.9 µM	8.21 ± 0.722 µM	11.9 µM	5.361 ± 0.486%	12.106 ± 1.036%

— paper PMC12680558, “Design, Synthesis, In Silico Absorption, Distribution, Metabolism, and Elimination and Molecular Docking Studies of Thiazole‐Based Furan Derivatives, and Their Biological Evaluation for Alzheimer Disease Therapy” (ChemistryOpen, 2025)
